Source: US20210115104A1, “AMYLIN ANALOGUES” (Zealand Pharma A/S, priority 2015, published 2021)
*1 amine or outer side, *2 acyl side, *3 side chain or, on linkers, in order; H or OH if unused. Where a SMILES comes first, the peptide text is derived from it. Bridges are numbered along the chain shown (N, C = ends). [ ]: non-standard residue; d: D form. The star is where a group is joined. C20 diacid = O=C(O)CCCCCCCCCCCCCCCCCCC(=O)*; γGlu = O=C(O)[C@H](CCC(=O)[*:2])N[*:1]; Hyp = O=C(O)[C@@H]1C[C@@H](O)CN1; NMeI = CC[C@H](C)[C@H](NC)C(=O)O; Aad = N[C@@H](CCCC(=O)O)C(=O)O; Orn = NCCC[C@H](N)C(=O)O; Sar = CNCC(=O)O

Columns and labels:
[1] = target: T1, human calcitonin receptor (hCTR2) (Homo sapiens, UniProt P30988); experiment: hCTR2 cAMP assay (AlphaScreen) in COS7 cells; assay type: cell-based; details: cAMP induction, COS7 cells expressing hCTR2; Table 1; read-out: hCTR2 EC50
T1 construct: expressed in transfected cells
T1 sequence (P30988 25-474): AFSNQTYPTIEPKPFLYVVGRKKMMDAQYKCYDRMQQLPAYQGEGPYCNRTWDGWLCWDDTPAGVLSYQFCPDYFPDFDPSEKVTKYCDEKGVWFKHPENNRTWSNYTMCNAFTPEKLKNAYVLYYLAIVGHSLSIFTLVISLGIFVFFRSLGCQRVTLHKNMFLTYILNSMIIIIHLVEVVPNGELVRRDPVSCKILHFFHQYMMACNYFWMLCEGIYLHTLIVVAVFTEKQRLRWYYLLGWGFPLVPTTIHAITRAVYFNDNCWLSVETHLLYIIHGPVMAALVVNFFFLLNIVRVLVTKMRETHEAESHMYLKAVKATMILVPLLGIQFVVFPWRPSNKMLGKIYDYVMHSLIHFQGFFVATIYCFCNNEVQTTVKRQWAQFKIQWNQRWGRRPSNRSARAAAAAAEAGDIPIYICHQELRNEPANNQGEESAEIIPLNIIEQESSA
Procedure, shortened: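 Stable hCTR2 clone in RAMP-naïve COS7 cells stimulated 15 min at 37 °C with increasing peptide concentrations in Tyrode buffer pH 7.4 containing IBMX and 0.1% casein. cAMP in lysates measured by AlphaScreen; EC50 from 4-parameter logistic fit.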

[2] = target: T2, human amylin receptor 3 (hAMYR3), hCTR2 co-expressed with hRAMP3 (Homo sapiens, UniProt O60896+P30988); experiment: hAMYR3 cAMP assay (AlphaScreen) in COS7 cells; assay type: cell-based; details: cAMP induction, COS7 cells expressing hAMYR3; Table 1; read-out: hAMYR3 EC50
T2 construct: expressed in transfected cells
T2 sequence (P30988 25-474): T1 sequence (P30988 25-474)
T2 sequence (O60896 24-148 partner): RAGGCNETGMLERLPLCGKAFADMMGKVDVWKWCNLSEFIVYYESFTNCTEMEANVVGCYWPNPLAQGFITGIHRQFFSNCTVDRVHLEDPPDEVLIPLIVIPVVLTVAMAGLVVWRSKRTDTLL
Procedure, shortened: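 Stable COS7 clone co-expressing hCTR2 and hRAMP3 was exposed to increasing peptide concentrations in Tyrode buffer (pH 7.4) with 100 µM IBMX and 0.1% casein for 15 min at 37 °C. Lysate cAMP was measured by AlphaScreen; EC50 came from 4-parameter logistic fitting.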

SMILES | EC50 [1] | EC50 [2]
CC[C@H](C)[C@@H](C(=O)N[C@@H](CC(C)C)C(=O)N[C@@H](CO)C(=O)N[C@@H](CO)C(=O)N[C@H](C(=O)N[C@@H](CCC(=O)O)C(=O)N[C@H](C(=O)NCC(=O)N[C@@H](CO)C(=O)N[C@@H](CC(N)=O)C(=O)N[C@H](C(=O)N1C[C@H](O)C[C@H]1C(N)=O)[C@@H](C)O)C(C)C)[C@@H](C)O)N(C)C(=O)[C@H](C)NC(=O)CN(C)C(=O)[C@H](Cc1ccccc1)NC(=O)[C@H](CO)NC(=O)[C@H](CO)NC(=O)[C@H](CCCNC(=N)N)NC(=O)[C@H](CCCC(=O)O)NC(=O)[C@H](CC(C)C)NC(=O)[C@H](Cc1ccccc1)NC(=O)[C@H](Cc1c[nH]cn1)NC(=O)[C@H](C)NC(=O)[C@H](CC(C)C)NC(=O)[C@H](CCCNC(=N)N)NC(=O)[C@H](CCC(N)=O)NC(=O)[C@@H](NC(=O)[C@H](C)NC(=O)[C@@H]1CSSC[C@H](NC(=O)[C@H](CCCNC(=N)N)NC(=O)CC[C@H](NC(=O)CCCCCCCCCCCCCCCCCCC(=O)O)C(=O)O)C(=O)N[C@@H](CC(N)=O)C(=O)N[C@@H]([C@@H](C)O)C(=O)N[C@@H](C)C(=O)N[C@@H]([C@@H](C)O)C(=O)N1)[C@@H](C)O [Compound 50, [19CD]-isoGlu-R-C( )-NTAT-C( )-ATQRLAHFL-Aad-RSSF-Gly(Me)-A-Ile(Me)-LSSTEVGSNT-Hyp-NH2] ({C20 diacid-γGlu}-RCNTATCATQRLAHFL[Aad]RSSF[Sar]A[NMeI]LSSTEVGSNT[Hyp]-NH2; disulfide 2-7) | 0.12 nM | 0.19 nM
CC[C@H](C)[C@@H](C(=O)N[C@@H](CC(C)C)C(=O)N[C@@H](CO)C(=O)N[C@@H](CO)C(=O)N[C@H](C(=O)N[C@@H](CCC(=O)O)C(=O)N[C@H](C(=O)NCC(=O)N[C@@H](CO)C(=O)N[C@@H](CC(N)=O)C(=O)N[C@H](C(=O)N1CCC[C@H]1C(N)=O)[C@@H](C)O)C(C)C)[C@@H](C)O)N(C)C(=O)[C@H](C)NC(=O)CN(C)C(=O)[C@H](Cc1ccccc1)NC(=O)[C@H](CO)NC(=O)[C@H](CO)NC(=O)[C@H](CCCNC(=N)N)NC(=O)[C@H](CCC(N)=O)NC(=O)[C@H](CC(C)C)NC(=O)[C@H](Cc1ccccc1)NC(=O)[C@H](Cc1c[nH]cn1)NC(=O)[C@H](C)NC(=O)[C@H](CC(C)C)NC(=O)[C@H](CCCNC(=N)N)NC(=O)[C@H](CCC(=O)O)NC(=O)[C@@H](NC(=O)[C@H](C)NC(=O)[C@@H]1CSSC[C@H](NC(=O)[C@H](CCCNC(=N)N)NC(=O)CC[C@H](NC(=O)CCCCCCCCCCCCCCCCCCC(=O)O)C(=O)O)C(=O)N[C@@H](CC(N)=O)C(=O)N[C@@H]([C@@H](C)O)C(=O)N[C@@H](C)C(=O)N[C@@H]([C@@H](C)O)C(=O)N1)[C@@H](C)O [Compound 62, [19CD]-isoGlu-R-C( )-NTAT-C( )-ATERLAHFLQRSSF-Gly(Me)-A-Ile(Me)-LSSTEVGSNTP-NH2] ({C20 diacid-γGlu}-RCNTATCATERLAHFLQRSSF[Sar]A[NMeI]LSSTEVGSNTP-NH2; disulfide 2-7) | 0.18 nM | 0.22 nM
CC[C@H](C)[C@@H](C(=O)N[C@@H](CC(C)C)C(=O)N[C@@H](CO)C(=O)N[C@@H](CO)C(=O)N[C@H](C(=O)N[C@@H](CCC(=O)O)C(=O)N[C@H](C(=O)NCC(=O)N[C@@H](CO)C(=O)N[C@@H](CC(N)=O)C(=O)N[C@H](C(=O)N1C[C@H](O)C[C@H]1C(N)=O)[C@@H](C)O)C(C)C)[C@@H](C)O)N(C)C(=O)[C@H](C)NC(=O)CN(C)C(=O)[C@H](Cc1ccccc1)NC(=O)[C@H](CO)NC(=O)[C@H](CO)NC(=O)[C@H](CCCNC(=N)N)NC(=O)[C@H](CCC(N)=O)NC(=O)[C@H](CC(C)C)NC(=O)[C@H](Cc1ccccc1)NC(=O)[C@H](Cc1c[nH]cn1)NC(=O)[C@H](C)NC(=O)[C@H](CC(C)C)NC(=O)[C@H](CCCNC(=N)N)NC(=O)[C@H](CCC(N)=O)NC(=O)[C@@H](NC(=O)[C@H](C)NC(=O)[C@@H]1CSSC[C@H](NC(=O)[C@H](CCCNC(=N)N)NC(=O)CC[C@H](NC(=O)CCCCCCCCCCCCCCCCCCC(=O)O)C(=O)O)C(=O)N2CCC[C@H]2C(=O)N[C@@H]([C@@H](C)O)C(=O)N[C@@H](C)C(=O)N[C@@H]([C@@H](C)O)C(=O)N1)[C@@H](C)O [Compound 64, [19CD]-isoGlu-R-C( )-PTAT-C( )-ATQRLAHFLQRSSF-Gly(Me)-A-Ile(Me)-LSSTEVGSNT-Hyp-NH2] ({C20 diacid-γGlu}-RCPTATCATQRLAHFLQRSSF[Sar]A[NMeI]LSSTEVGSNT[Hyp]-NH2; disulfide 2-7) | 0.11 nM | 0.15 nM

These reach a lower EC50 [1]. Values come first.

EC50 [1] | EC50 [2] | SMILES
0.1 nM | 0.14 nM | CC[C@H](C)[C@@H](C(=O)N[C@@H](CC(C)C)C(=O)N[C@@H](CO)C(=O)N[C@@H](CO)C(=O)N[C@H](C(=O)N[C@@H](CCC(=O)O)C(=O)N[C@H](C(=O)NCC(=O)N[C@@H](CO)C(=O)N[C@@H](CO)C(=O)N[C@H](C(=O)N1CCC[C@H]1C(N)=O)[C@@H](C)O)C(C)C)[C@@H](C)O)N(C)C(=O)[C@H](C)NC(=O)CN(C)C(=O)[C@H](Cc1ccccc1)NC(=O)[C@H](CO)NC(=O)[C@H](CO)NC(=O)[C@H](CCCNC(=N)N)NC(=O)[C@@H](NC(=O)[C@H](CC(C)C)NC(=O)[C@H](Cc1ccccc1)NC(=O)[C@H](Cc1c[nH]cn1)NC(=O)[C@H](C)NC(=O)[C@H](CC(C)C)NC(=O)[C@H](CCCNC(=N)N)NC(=O)[C@H](CCC(=O)O)NC(=O)[C@@H](NC(=O)[C@H](C)NC(=O)[C@@H]1CSSC[C@H](NC(=O)[C@H](CCCNC(=N)N)NC(=O)CC[C@H](NC(=O)CCCCCCCCCCCCCCCCCCC(=O)O)C(=O)O)C(=O)NCC(=O)N[C@@H]([C@@H](C)O)C(=O)N[C@@H](C)C(=O)N[C@@H]([C@@H](C)O)C(=O)N1)[C@@H](C)O)[C@@H](C)O [Compound 46, [19CD]-isoGlu-R-C( )-GTAT-C( )-ATERLAHFLTRSSF-Gly(Me)-A-Ile(Me)-LSSTEVGSSTP-NH2] ({C20 diacid-γGlu}-RCGTATCATERLAHFLTRSSF[Sar]A[NMeI]LSSTEVGSSTP-NH2; disulfide 2-7)
0.1 nM | 0.19 nM | CC[C@H](C)[C@@H](C(=O)N[C@@H](CC(C)C)C(=O)N[C@@H](CO)C(=O)N[C@@H](CO)C(=O)N[C@H](C(=O)N[C@@H](CCC(=O)O)C(=O)N[C@H](C(=O)NCC(=O)N[C@@H](CO)C(=O)N[C@@H](CCCN)C(=O)N[C@H](C(=O)N1CCC[C@H]1C(N)=O)[C@@H](C)O)C(C)C)[C@@H](C)O)N(C)C(=O)[C@H](C)NC(=O)CN(C)C(=O)[C@H](Cc1ccccc1)NC(=O)[C@H](CO)NC(=O)[C@H](CO)NC(=O)[C@H](CCCNC(=N)N)NC(=O)[C@@H](NC(=O)[C@H](CC(C)C)NC(=O)[C@H](Cc1ccccc1)NC(=O)[C@H](Cc1c[nH]cn1)NC(=O)[C@H](C)NC(=O)[C@H](CC(C)C)NC(=O)[C@H](CCCNC(=N)N)NC(=O)[C@H](CCC(=O)O)NC(=O)[C@@H](NC(=O)[C@H](C)NC(=O)[C@@H]1CSSC[C@H](NC(=O)[C@H](CCCNC(=N)N)NC(=O)CC[C@H](NC(=O)CCCCCCCCCCCCCCCCCCC(=O)O)C(=O)O)C(=O)NCC(=O)N[C@@H]([C@@H](C)O)C(=O)N[C@@H](C)C(=O)N[C@@H]([C@@H](C)O)C(=O)N1)[C@@H](C)O)[C@@H](C)O [Compound 47, [19CD]-isoGlu-R-C( )-GTAT-C( )-ATERLAHFLTRSSF-Gly(Me)-A-Ile(Me)-LSSTEVGS-Orn-TP-NH2] ({C20 diacid-γGlu}-RCGTATCATERLAHFLTRSSF[Sar]A[NMeI]LSSTEVGS[Orn]TP-NH2; disulfide 2-7)
